Experimental data: patent US20240109881A1, “Heteroaryl Compounds as Ligand Directed Degraders of IRAK4” (Bristol-Myers Squibb Company, priority 2022, published 2024)

target: T1, IRAK4 (Homo sapiens, UniProt Q9NWZ3); assay: ALE THP1 HTRF (Advanced Lipoxidation End Product THP1 Homogeneous Time Resolved Fluorescence); assay type: cell-based; conditions: THP1 cells
T1 construct: endogenous in cells; host or cells: THP-1 cells
T1 sequence (Q9NWZ3 1-460): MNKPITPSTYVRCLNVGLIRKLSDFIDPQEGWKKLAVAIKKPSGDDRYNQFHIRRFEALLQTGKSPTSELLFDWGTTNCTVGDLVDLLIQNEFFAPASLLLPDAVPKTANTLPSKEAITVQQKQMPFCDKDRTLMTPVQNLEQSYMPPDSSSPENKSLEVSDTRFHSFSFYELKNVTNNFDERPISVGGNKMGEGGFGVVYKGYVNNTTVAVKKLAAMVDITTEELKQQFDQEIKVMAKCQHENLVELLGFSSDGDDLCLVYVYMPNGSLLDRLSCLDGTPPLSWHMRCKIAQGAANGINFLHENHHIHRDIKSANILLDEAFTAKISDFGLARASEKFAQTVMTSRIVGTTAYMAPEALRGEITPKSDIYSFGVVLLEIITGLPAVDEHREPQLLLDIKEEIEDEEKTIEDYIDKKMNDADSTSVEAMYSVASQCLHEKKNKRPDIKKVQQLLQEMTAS
Experimental: For Homogenous Time Resolved Fluorescence (HTRF) assays, a Cisbio HTRF kit was used, which included: Lysis Buffer #1 4×, Blocking Reagent #3 100×, 20× Antibody 1 (Anti-IRAK4 d2), 20× Antibody 2 (Anti-IRAK4 k), and Detection Buffer.
4× Lysis Buffer was stored at 4° C. For use as 1× Lysis buffer, the 4× solution was diluted with de-ionized water (distilled water, Gibco Cat. #15230279) and 100× Blocking Reagent in a 1:3:0.04 volume ratio.
20× Antibody Solution aliquots were stored in −80° C. and the Detection Buffer was stored in 4° C. For use as a 1× Antibody Solution, the 20× Antibody Solution aliquot was diluted with Detection Buffer in a 1:19 volume ratio.
Cells were lysed at room temperature for 45 min with shaking. A BCA protein assay was performed and normalization was conducted to the desired total protein concentration with 1× lysis buffer. Next, 1× Antibody Solutions were prepared by adding 380 μL Detection Buffer to 20 μL 20× Antibody Solution aliquots and mixing well. 1× Antibody Solutions were combined 1:1 and briefly vortexed. For control wells, 20 μL 1× anti IRAK4-k Antibody Solution was saved. The 384-well plate (ProxiPlate-384 Plus, Perkin Elmer Cat. #6008289) was loaded by adding 4 μL of the mixed Antibody Solution to empty wells using a single channel repeater. Using a multi-channel repeater, 16 μL lysate was added per well, and any bubbles that were formed were popped with 20 μL pipette tips and Kimwipe edges. In column 10, triplicates of each control was prepared. In wells A10, B10, and C10, buffer control was prepared by adding 16 μL Lysis Buffer and 4 μL Detection Buffer. In wells D10, E10, and F10, cryptate control was prepared by adding 16 μL Lysis Buffer, 2 μL Detection Buffer, and 2 μL 1× anti IRAK4-k Antibody Solution. In wells G10, H10, and I10, a negative control was prepared by adding 16 μL Lysis Buffer and 4 μL mixed Antibody Solution. The plate was sealed with a clear seal and covered with an aluminum lid. The plate was spun down at 800 g for 5 min and incubated in the dark at room temperature overnight. The next day, the plate was spun down at 800 g for 5 min. The samples were analyzed by a plate reader (Envision, PerkinElmer) using the Desnor 384 HTRF program.

Row | ALE THP1 HTRF YMIN [%] | EC50 [nM] | Structure (SMILES)
1 | 26.9 | 16 | N#Cc1cnc2c(cnn2-c2cc(NC3CCCC3)c(-c3cn([C@H]4CC[C@H](NC(=O)C5CCN(c6ccc7c(c6)C(=O)N(C6CCC(=O)NC6=O)C7)CC5)CC4)nn3)cn2)c1 (stereo partly drawn) [P-16, N-((1r,4r)-4-(4-(6-(5-cyano-1H-pyrazolo[3,4-b]pyridin-1-yl)-4-(cyclopentylamino)pyridin-3-yl)-1H-1,2,3-triazol-1-yl)cyclohexyl)-1-(2-(2,6-dioxopiperidin-3-yl)-3-oxoisoindolin-5-yl)piperidine-4-carboxamide]
2 | 24.6 | 13 | N#Cc1cnc2c(cnn2-c2cc(NC3CCCC3)c(C(=O)N[C@H]3CC[C@H](CN4CCN(c5ccc6c(c5)C(=O)N(C5CCC(=O)NC5=O)C6)CC4)CC3)cn2)c1 (stereo partly drawn) [P-17]
3 | 36.9 | 37 | N#Cc1cnc2c(cnn2-c2cc(NC3CCCC3)c(C(=O)N[C@H]3CC[C@H](CN4CCN(c5ccc6c(c5)C(=O)N(C5CCC(=O)NC5=O)C6=O)CC4)CC3)cn2)c1 (stereo partly drawn) [P-18]
4 | 38.0 | 17 | CN(C(=O)C1CCN(c2ccc3c(c2)C(=O)N(C2CCC(=O)NC2=O)C3)CC1)C1CCC(n2cc(-c3cnc(-n4ncc5cc(C#N)cnc54)cc3NC3CCCC3)nn2)CC1 (stereo not drawn) [P-19]
5 | 30.9 | 1630 | N#Cc1cnc2c(cnn2-c2cc(NC3CCCC3)c(C(=O)NC3CCC(C(=O)Nc4ccc(C(=O)Nc5ccc(C6CCC(=O)NC6=O)cc5)cc4)CC3)cn2)c1 (stereo not drawn) [P-20]
6 | 40.3 | 22 | C[C@@H]1CN(C(=O)C2CCC(NC(=O)c3cnc(-n4ncc5cc(C#N)cnc54)cc3NC3CCCC3)CC2)CCN1c1ccc2c(c1)C(=O)N(C1CCC(=O)NC1=O)C2=O (stereo partly drawn) [P-21]
7 | 20.0 | 1110 | N#Cc1cnc2c(cnn2-c2cc(NC3CC3)c(C(=O)NC3CCC(C(=O)N4CCN(c5ccc6c(c5)C(=O)N(C5CCC(=O)NC5=O)C6)CC4)CC3)cn2)c1 (stereo not drawn) [P-22]
8 | 34.8 | 20 | N#Cc1cnc2c(cnn2-c2cc(NC3CCCC3)c(C(=O)NC3CCC(CC(=O)N4CCN(c5ccc(C6CCC(=O)NC6=O)cc5)CC4)CC3)cn2)c1 (stereo not drawn) [P-23]
9 | 35.3 | 324 | N#Cc1cnc2c(cnn2-c2cc(NC3CCCC3)c(C(=O)N[C@H]3CC[C@H](CN4CCN(c5ccc6c(c5)C(=O)N(C5CCC(=O)NC5=O)C6)CC4)CC3)cn2)c1 (stereo partly drawn) [P-24]
10 | 20.1 | 12 | CC1(Nc2cc(-n3ncc4cc(C#N)cnc43)ncc2C(=O)NC2CCC(C(=O)N3CCN(c4ccc5c(c4)C(=O)N(C4CCC(=O)NC4=O)C5)CC3)CC2)CC1 (stereo not drawn) [P-25]
11 | 22.3 | 24 | CC(C)(C)Nc1cc(-n2ncc3cc(C#N)cnc32)ncc1C(=O)NC1CCC(C(=O)N2CCN(c3ccc4c(c3)C(=O)N(C3CCC(=O)NC3=O)C4)CC2)CC1 (stereo not drawn) [P-26]
12 | 28.4 | 40 | CN(C1CCN(c2ccc3c(c2)C(=O)N(C2CCC(=O)NC2=O)C3)CC1)[C@H]1CC[C@H](n2cc(-c3cnc(-n4ncc5cc(C#N)cnc54)cc3NC3CCCC3)nn2)CC1 (stereo partly drawn) [P-27]
13 | 36.6 | 145 | N#Cc1cnc2c(cnn2-c2cc(NC3CCCC3)c(C(=O)NC3CCC(C(=O)NC4CCN(c5ccc(C6CCC(=O)NC6=O)cc5)CC4)CC3)cn2)c1 (stereo not drawn) [P-28]
14 | 14.1 | 98 | N#Cc1cnc2c(cnn2-c2cc(NC3CCCC3)c(C(=O)N[C@H]3CC[C@H](CNC4CCN(c5ccc(C6CCC(=O)NC6=O)cc5)CC4)CC3)cn2)c1 (stereo partly drawn) [P-29]
15 | 44.1 | 3320 | N#Cc1cnc2c(cnn2-c2cc(NC3CCCC3)c(C(=O)NC3CCC(O)(CN4CCN(c5ccc6c(c5)C(=O)N(C5CCC(=O)NC5=O)C6=O)CC4)CC3)cn2)c1 (stereo not drawn) [P-30, 6-(5-cyano-1H-pyrazolo[3,4-b]pyridin-1-yl)-4-(cyclopentylamino)-N-((1s,4s)-4-((4-(2-(2,6-dioxopiperidin-3-yl)-1,3-dioxoisoindolin-5-yl)piperazin-1-yl)methyl)-4-hydroxycyclohexyl)nicotinamide]
16 | 18.2 | 60 | N#Cc1cnc2c(cnn2-c2cc(NC3CCCC3)c(C(=O)NC3CCC(CN4CCC(C(=O)Nc5ccc(C6CCC(=O)NC6=O)cc5)CC4)CC3)cn2)c1 (stereo not drawn) [P-31]
17 | 21.0 | 547 | C[C@@H]1CN(c2ccc3c(c2)C(=O)N(C2CCC(=O)NC2=O)C3=O)C[C@H](C)N1CC1CCC(NC(=O)c2cnc(-n3ncc4cc(C#N)cnc43)cc2NC2CCCC2)CC1 (stereo partly drawn) [P-32]
18 | 15.9 | 8 | N#Cc1cnc2c(cnn2-c2cc(NC3CCCC3)c(-n3cc(C4CCC(NC(=O)C5CCN(c6ccc7c(c6)C(=O)N(C6CCC(=O)NC6=O)C7)CC5)CC4)nn3)cn2)c1 (stereo not drawn) [P-33]
19 | 12.9 | 597 | N#Cc1cnc2c(cnn2-c2cc(NC3CCCC3)c(-c3cn([C@H]4CC[C@H](CN5CCC(C(=O)Nc6ccc(N7CCC(=O)NC7=O)cc6)CC5)CC4)nn3)cn2)c1 [P-34]
20 | 8.4 | 41 | N#Cc1cnc2c(cnn2-c2cc(NC3CCCC3)c(C(=O)NC3CCC(CCN4CCN(c5ccc(C6CCC(=O)NC6=O)cc5)CC4)CC3)cn2)c1 (stereo not drawn) [P-35]
21 | 10.7 | 47 | CC([C@H]1CC[C@H](NC(=O)c2cnc(-n3ncc4cc(C#N)cnc43)cc2NC2CCCC2)CC1)N1CCN(c2ccc3c(c2)C(=O)N(C2CCC(=O)NC2=O)C3)CC1 (stereo partly drawn) [P-36]
22 | 20.7 | 132 | C[C@H]1CN(c2ccc3c(c2)C(=O)N(C2CCC(=O)NC2=O)C3=O)C[C@H](C)N1CC1CCC(NC(=O)c2cnc(-n3ncc4cc(C#N)cnc43)cc2NC2CCCC2)CC1 (stereo partly drawn) [P-37]
23 | 24.3 | 119 | CN(c1ccc2c(c1)C(=O)N(C1CCC(=O)NC1=O)C2=O)C1CCN(C[C@H]2CC[C@H](NC(=O)c3cnc(-n4ncc5cc(C#N)cnc54)cc3NC3CCCC3)CC2)CC1 (stereo partly drawn) [P-38]
24 | 24.3 | 198 | N#Cc1cnc2c(cnn2-c2cc(NC3CCCC3)c(C(=O)NC3CCC(CN4CC5(CCN(c6ccc(C7CCC(=O)NC7=O)cc6)CC5)C4)CC3)cn2)c1 (stereo not drawn) [P-39]
25 | 20.0 | 276 | N#Cc1cnc2c(cnn2-c2cc(NC3CCCC3)c(-c3cn([C@H]4CC[C@H](CN5CCN(CC(=O)Nc6ccc(C7CCC(=O)NC7=O)cc6)CC5)CC4)nn3)cn2)c1 (stereo partly drawn) [P-40, 2-(4-(((1r,4r)-4-(4-(6-(5-Cyano-1H-pyrazolo[3,4-b]pyridin-1-yl)-4-(cyclopentylamino)pyridin-3-yl)-1H-1,2,3-triazol-1-yl)cyclohexyl)methyl)piperazin-1-yl)-N-(4-(2,6-dioxopiperidin-3-yl)phenyl)acetamide]
26 | 27.6 | 123 | N#Cc1cnc2c(ccn2-c2cc(NC3CC3)c(C(=O)NC3CCC(CN4CCC(CNc5ccc(C6CCC(=O)NC6=O)cc5)CC4)CC3)cn2)c1 (stereo not drawn) [P-42]
27 | 14.7 | 312 | N#Cc1cnc2c(cnn2-c2cc(NC3CCCC3)c(C(=O)N[C@H]3CC[C@H](CN4CCC(CCc5ccc(C6CCC(=O)NC6=O)cc5)CC4)CC3)cn2)c1 (stereo partly drawn) [P-43]
28 | 38.8 | 172 | N#Cc1cnc2c(cnn2-c2cc(NC3CCCC3)c(-c3cn([C@H]4CC[C@H](CN5CCC(CNc6ccc(C7CCC(=O)NC7=O)cc6)CC5)CC4)nn3)cn2)c1 (stereo partly drawn) [P-44]
29 | 11.4 | 28 | N#Cc1cnc2c(cnn2-c2cc(NC3CCCC3)c(-c3cn([C@H]4CC[C@H](C(=O)N5CCC(C(=O)Nc6ccc(N7CCC(=O)NC7=O)cc6)CC5)CC4)nn3)cn2)c1 [P-45, 1-[4-[4-[6-(5-Cyanopyrazolo[3,4-b]pyridin-1-yl)-4-(cyclopentylamino)-3-pyridyl]triazol-1-yl]cyclohexanecarbonyl]-N-[4-(2,4-dioxohexahydropyrimidin-1-yl)phenyl]piperidine-4-carboxamide]
30 | 31.5 | 74 | N#Cc1cnc2c(cnn2-c2cc(NC3CCCC3)c(C(=O)NC3CCC(CN4CCC(C(=O)Nc5ccc(C6CCC(=O)NC6=O)cc5)C(F)(F)C4)CC3)cn2)c1 (stereo not drawn) [P-46]
